Assay results from patent US4268680A, “Heterocyclic derivatives of 1-(1,3-dioxolan-2-ylmethyl)-1H-imidazoles and 1H-1,2,4-triazoles” (Janssen Pharmaceutica N.V., priority 1979, dated 1981).

Test system: Candida albicans
Assay: Experiment B: Activity of compounds (I) against crop candidosis in turkeys
Format: in vivo
Conditions: Table II; medicated feed for 13 consecutive days; crops of 50% of the animals completely negative for Candida albicans
Procedure: Experiment B: Activity of compounds (I) against crop candidosis in turkeys. Turkeys of 14 days old were infected in the crop with 4.10^6 Candida albicans cells, grown on Sabouraud broth for 48 hours at 37° C. and diluted with saline. The volume of the inoculum was 1 ml. The drug under investigation were premixed in 500 mg of lacton and thereafter admixed in 1000 g of meal without any additives. The concentration of the drug under investigation in the meal was expressed in mg/kg. The animals were given the medicated feed for 13 consecutive days starting on the day of infection. At the end of the experiment all animals were sacrificed. At autopsy the crops were removed, emptied and grinded in an ultra-turrax mixer in 15 ml of sterile saline. Colony counting was done on Sabouraud agar and the results given in Tables I and II represent the ED50, i.e., the dose of the drug whereby the crops of 50% of the animals were completely negative for Candida albicans.

For Clc1ccc(C2(Cn3cncn3)OCC(COc3ccc(-n4ccnc4)cc3)O2)c(Cl)c1 (stereo not shown), the “Crop candidosis in Turkeys: EO50 in mg/kg in feed” value was 8 mg/kg in feed.
